# Test results published in US11420922B2, “Hydroxylated tropolone inhibitors of nucleotidyl transferases in herpesvirus and Hepatitis B and uses therefor” (Saint Louis University, priority 2015, dated 2022).
# Entries after “also recorded” stand apart in the source; their conditions may differ.
# Assays:
# [1] = Mouse liver microsome assay; format: in vitro ADME; settings: 1 μM in mouse liver microsomes
# In short: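 Mouse liver microsomes at 0.25 μM P450 final in 0.1 M potassium phosphate with 3.3 mM MgCl and 1 μM compound, prewarmed 5 min at 37 °C. Reaction started with NADPH (1.2 mM final); aliquots at 0, 5, 10, 20 and 30 min quenched in cold acetonitrile with EDTA or EGTA, analysed by LC/MS/MS.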
# HSV-1 = experiment: Anti-HSV-1 replication assay in Vero cells, titers by plaque assay; format: cell-based, herpes simplex virus 1; settings: Human alphaherpesvirus 1, Vero, 24 h
# In short: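 Vero monolayers infected with clinical HSV-1 or HSV-2 isolates at MOI 0.1 with compound present (50 and 5 μM final), 1 h at 37° C, then compound in DMEM for another 23 h. Yield titered by plaque assay on Vero cells; EC50 by nonlinear fit of serial dilutions starting at 50 μM, DMSO controls.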
# HSV-2 = experiment: Combination of ACV and compound 118 against HSV-2 in Vero cells (plaque assay, qPCR, Chou-Talalay); format: cell-based, herpes simplex virus 2; settings: constant ratios, MOI 0.1, 24 h, FIGS. 8A-8C
# Protocol: After 24 h, the cultures were collected and divided into two aliquots. […] The area below the lines indicates synergism, and the area above indicates antagonism.
# HSV = experiment: Anti-HSV SAR summary, HSV type not separated; format: cell-based, herpes simplex virus; settings: grouped by activity at 50, 5 and 0.5 μM
# In short: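 Confluent monolayers were infected with HSV-1 or HSV-2 at MOI 0.1 in the presence of compound at 50 and 5 µM for 1 h at 37 °C. Compound was then re-added in DMEM/2% newborn calf serum for 23 h more. Yield was titred by plaque assay on Vero cells, with DMSO controls. EC50 values came from serial dilutions starting at 50 µM, fitted by non-linear regression.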
# [2] = Cytotoxicity reported with the HBV assay (Table 4); format: cell-based; settings: human, hepatoma cells; read-out: CC50 (HBV assay table)
# In short: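 Cells exposed 24 h to compounds at 0.78–100 μM in 1% DMSO, under the same conditions as the viral replication assays.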
# [3] = Quantitative Vero cell toxicity (MTT); format: cell-based; settings: African green monkey, Vero cells
# Protocol: Qualitative assessments of cytotoxicity were done visually by inspecting the cells in the primary screening assays. For the quantitative assays, cells were plated in 96-well plates at 1.0×10^4 per well. The next day the compounds were added at 0.78 to 100 μM in a final concentration of 1% (v/v) DMSO, and the cells were incubated for 24 hours under conditions identical to those employed for the viral replication inhibition assays. Mitochondrial toxicity was measured by incubating the cells with 0.25 mg/mL thiazolyl blue tetrazolium bromide (MTT, Sigma Aldrich Chemical Co.), the cultures were incubated for 60 min, metabolites were solubilized in acidic isopropanol, and absorbance was read at 570 nm. CC50 values were calculated by non-linear curve fitting using GraphPad Prism.
# Quantitative toxicity measurements were conducted for all compounds that suppressed HSV replication by >2 log10 at 5 μM plus a number of compounds with lesser inhibitory activity for comparison. Toxicity was assessed by […]. Cells were plated in 96-well plates at 1.0×10^4 per well. The next day compound was added in concentrations ranging from 0.78 to 100 μM in a final concentration of 1% (v/v) DMSO. The cells were incubated for 24 h under conditions identical to those employed for the viral replication inhibition assays, and then mitochondrial activity was measured with the MTT assay (Sigma Aldrich) according to the manufacturer's instructions. Percent viability was determined for each compound concentration from the […], and then 50% cytotoxic concentrations (CC50) values were calculated by non-linear curve fitting using GraphPad Prism. Consistent with the subjective assessments of toxicity, all compounds selected for quantitative toxicity assessment had CC50 values≥50 μM under these conditions (Table 1).
smiles,measurement,setting,value
Cc1cc(O)c(=O)c(O)cc1C(=O)c1ccc(-c2ccccc2)cc1 [Compound 118],Non-P450 turn-over,[1],Potential
same,half-life at 1 μM,[1]; read-out: t ½,34 min
same,ER,[1]; extraction ratio,0.63
same,CLint scaled at 1 μM,"[1]; mouse, liver microsomes",154 mL/min/kg
same,predicted hepatic clearance at 1 μM,"[1]; mouse, liver microsomes, read-out: CL ′hep",57 mL/min/kg
same,EC50,HSV-1; read-out: HSV-1 EC50,0.085 µM
same,log reduction at 5 µM,HSV-1; read-out: HSV-1 Log suppression 5 μM,5.14
same,log reduction at 50 µM,HSV-1; read-out: HSV-1 Log suppression 50 μM,6.27
same,interaction with ACV on HSV-2 replication and DNA accumulation,HSV-2,synergistically inhibit
same,"anti-HSV SAR group, in words",HSV,highly inhibitory at much lower concentrations; also recorded: fully inhibitory at 5 μM
same,CC50 at 24 h,[2],21 µM
same,CC50 at 24 h,[3],> 100 µM
